According to US20230123334A1, “AMINO LIPID COMPOUND, PREPARATION METHOD THEREFOR, AND APPLICATION THEREOF” (SHENZHEN SHENXIN BIOTECHNOLOGY CO., LTD., priority 2020, published 2023):

Tested on: HEK293 cells
Assay: Preliminary screening as mRNA vectors, EGFP mRNA transfection of HEK293 cells
Type: cell-based
Details: EGFP mRNA 50 ng per well, 96-well plates; percentage of GFP fluorescent cells relative to total number of cells (Hoechst)
Outline: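 HEK293 cells in DMEM plus 10% FBS transfected in 96-well format with 50 ng EGFP mRNA per well; Lipofectamine2000 served as positive control. Read-out is the percentage of GFP-fluorescent cells among total cells, counted by Hoechst nuclear stain.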

Row | Compound | Absolute mRNA transfection efficiency in HEK293 cells
1 | CCCCCCCCCCCCCCCCSc1nc(NCCN2CCN(C)CC2)nc(SCCCCCC)n1 [Compound D5S6S16] | 60.5%
2 | CCCCCCCCCCCCCCCCCCSc1nc(NCCN2CCN(C)CC2)nc(SCCCCCC)n1 [Compound D5S6S18] | 55.1%
3 | CCCCCCCSc1nc(NCCCCCC)nc(NCCN2CCN(C)CC2)n1 [Compound D5S7N6] | 1.9%
4 | CCCCCCCNc1nc(NCCN2CCN(C)CC2)nc(SCCCCCCC)n1 [Compound D5S7N7] | 1.0%
5 | CCCCCCCCNc1nc(NCCN2CCN(C)CC2)nc(SCCCCCCC)n1 [Compound D5S7N8] | 4.3%
6 | CCCCCCCCCNc1nc(NCCN2CCN(C)CC2)nc(SCCCCCCC)n1 [Compound D5S7N9] | 3.1%
7 | CCCCCCCCCCCNc1nc(NCCN2CCN(C)CC2)nc(SCCCCCCC)n1 [Compound D5S7N11] | 8.2%
8 | CCCCCCCCCCCCNc1nc(NCCN2CCN(C)CC2)nc(SCCCCCCC)n1 [Compound D5S7N12] | 23.0%
9 | CCCCCCCCCCCCCNc1nc(NCCN2CCN(C)CC2)nc(SCCCCCCC)n1 [Compound D5S7N13] | 39.5%
10 | CCCCCCCCCCCCCCCNc1nc(NCCN2CCN(C)CC2)nc(SCCCCCCC)n1 [Compound D5S7N15] | 38.5%
11 | CCCCCCCCCCCCCCCCNc1nc(NCCN2CCN(C)CC2)nc(SCCCCCCC)n1 [Compound D5S7N16] | 32.2%
12 | CCCCCCCCCCCCCCCCCCNc1nc(NCCN2CCN(C)CC2)nc(SCCCCCCC)n1 [Compound D5S7N18] | 38.5%
13 | CCCCCCCSc1nc(NCCN2CCN(C)CC2)nc(SCCCCCCC)n1 [Compound D5S7S7] | 10.5%
14 | CCCCCCCCSc1nc(NCCN2CCN(C)CC2)nc(SCCCCCCC)n1 [Compound D5S7S8] | 16.6%
15 | CCCCCCCCCSc1nc(NCCN2CCN(C)CC2)nc(SCCCCCCC)n1 [Compound D5S7S9] | 20.6%
16 | CCCCCCCCCCSc1nc(NCCN2CCN(C)CC2)nc(SCCCCCCC)n1 [Compound D5S7S10] | 12.2%
17 | CCCCCCCCCCCSc1nc(NCCN2CCN(C)CC2)nc(SCCCCCCC)n1 [Compound D5S7S11] | 42.0%
18 | CCCCCCCCCCCCSc1nc(NCCN2CCN(C)CC2)nc(SCCCCCCC)n1 [Compound D5S7S12] | 48.8%
19 | CCCCCCCCCCCCCCSc1nc(NCCN2CCN(C)CC2)nc(SCCCCCCC)n1 [Compound D5S7S14] | 63.7%
20 | CCCCCCCCCCCCCCCSc1nc(NCCN2CCN(C)CC2)nc(SCCCCCCC)n1 [Compound D5S7S15] | 58.7%
21 | CCCCCCCCCCCCCCCCSc1nc(NCCN2CCN(C)CC2)nc(SCCCCCCC)n1 [Compound D5S7S16] | 49.2%

Row | Compound | Absolute mRNA transfection efficiency in HEK293 cells
22 | CCCCCCCCCCCCCCCCCCSc1nc(NCCN2CCN(C)CC2)nc(SCCCCCCC)n1 [Compound D5S7S18] | 3.8%
23 | CCCCCCCCSc1nc(NCCCCCC)nc(NCCN2CCN(C)CC2)n1 [Compound D5S8N6] | 1.6%
24 | CCCCCCCCSc1nc(NCCCCCCC)nc(NCCN2CCN(C)CC2)n1 [Compound D5S8N7] | 2.5%
25 | CCCCCCCCNc1nc(NCCN2CCN(C)CC2)nc(SCCCCCCCC)n1 [Compound D5S8N8] | 1.3%
26 | CCCCCCCCCNc1nc(NCCN2CCN(C)CC2)nc(SCCCCCCCC)n1 [Compound D5S8N9] | 11.2%
27 | CCCCCCCCCCCNc1nc(NCCN2CCN(C)CC2)nc(SCCCCCCCC)n1 [Compound D5S8N11] | 30.1%
28 | CCCCCCCCCCCCNc1nc(NCCN2CCN(C)CC2)nc(SCCCCCCCC)n1 [Compound D5S8N12] | 52.5%
29 | CCCCCCCCCCCCCNc1nc(NCCN2CCN(C)CC2)nc(SCCCCCCCC)n1 [Compound D5S8N13] | 44.2%
30 | CCCCCCCCCCCCCCCNc1nc(NCCN2CCN(C)CC2)nc(SCCCCCCCC)n1 [Compound D5S8N15] | 14.9%
31 | CCCCCCCCCCCCCCCCNc1nc(NCCN2CCN(C)CC2)nc(SCCCCCCCC)n1 [Compound D5S8N16] | 32.3%
32 | CCCCCCCCCCCCCCCCCCNc1nc(NCCN2CCN(C)CC2)nc(SCCCCCCCC)n1 [Compound D5S8N18] | 29.9%
33 | CCCCCCCCSc1nc(NCCN2CCN(C)CC2)nc(SCCCCCCCC)n1 [Compound D5S8S8] | 45.2%
34 | CCCCCCCCCSc1nc(NCCN2CCN(C)CC2)nc(SCCCCCCCC)n1 [Compound D5S8S9] | 36.1%
35 | CCCCCCCCCCSc1nc(NCCN2CCN(C)CC2)nc(SCCCCCCCC)n1 [Compound D5S8S10] | 65.6%
36 | CCCCCCCCCCCSc1nc(NCCN2CCN(C)CC2)nc(SCCCCCCCC)n1 [Compound D5S8S11] | 87.0%
37 | CCCCCCCCCCCCSc1nc(NCCN2CCN(C)CC2)nc(SCCCCCCCC)n1 [Compound D5S8S12] | 47.4%
38 | CCCCCCCCCSc1nc(NCCCCCC)nc(NCCN2CCN(C)CC2)n1 [Compound D5S9N6] | 2.9%
39 | CCCCCCCCCSc1nc(NCCCCCCC)nc(NCCN2CCN(C)CC2)n1 [Compound D5S9N7] | 2.6%
40 | CCCCCCCCCSc1nc(NCCCCCCCC)nc(NCCN2CCN(C)CC2)n1 [Compound D5S9N8] | 6.0%
41 | CCCCCCCCCNc1nc(NCCN2CCN(C)CC2)nc(SCCCCCCCCC)n1 [Compound D5S9N9] | 38.2%
42 | CCCCCCCCCCCNc1nc(NCCN2CCN(C)CC2)nc(SCCCCCCCCC)n1 [Compound D5S9N11] | 32.1%

Row | Compound | Absolute mRNA transfection efficiency in HEK293 cells
43 | CCCCCCCCCCCCNc1nc(NCCN2CCN(C)CC2)nc(SCCCCCCCCC)n1 [Compound D5S9N12] | 24.6%
44 | CCCCCCCCCCCCCNc1nc(NCCN2CCN(C)CC2)nc(SCCCCCCCCC)n1 [Compound D5S9N13] | 41.5%
45 | CCCCCCCCCCCCCCCNc1nc(NCCN2CCN(C)CC2)nc(SCCCCCCCCC)n1 [Compound D5S9N15] | 32.9%
46 | CCCCCCCCCCCCCCCCNc1nc(NCCN2CCN(C)CC2)nc(SCCCCCCCCC)n1 [Compound D5S9N16] | 16.1%
47 | CCCCCCCCCCCCCCCCCCNc1nc(NCCN2CCN(C)CC2)nc(SCCCCCCCCC)n1 [Compound D5S9N18] | 28.6%
48 | CCCCCCCCCCSc1nc(NCCCCCC)nc(NCCN2CCN(C)CC2)n1 [Compound D5S10N6] | 1.1%
49 | CCCCCCCCCCSc1nc(NCCCCCCC)nc(NCCN2CCN(C)CC2)n1 [Compound D5S10N7] | 3.2%
50 | CCCCCCCCCCSc1nc(NCCCCCCCC)nc(NCCN2CCN(C)CC2)n1 [Compound D5S10N8] | 8.6%
51 | CCCCCCCCCCSc1nc(NCCCCCCCCC)nc(NCCN2CCN(C)CC2)n1 [Compound D5S10N9] | 8.5%
52 | CCCCCCCCCCCNc1nc(NCCN2CCN(C)CC2)nc(SCCCCCCCCCC)n1 [Compound D5S10N11] | 11.0%
53 | CCCCCCCCCCCCNc1nc(NCCN2CCN(C)CC2)nc(SCCCCCCCCCC)n1 [Compound D5S10N12] | 3.6%
54 | CCCCCCCCCCCCCNc1nc(NCCN2CCN(C)CC2)nc(SCCCCCCCCCC)n1 [Compound D5S10N13] | 4.6%
55 | CCCCCCCCCCCCCCCNc1nc(NCCN2CCN(C)CC2)nc(SCCCCCCCCCC)n1 [Compound D5S10N15] | 1.8%
56 | CCCCCCCCCCCCCCCCNc1nc(NCCN2CCN(C)CC2)nc(SCCCCCCCCCC)n1 [Compound D5S10N16] | 3.9%
57 | CCCCCCCCCCCCCCCCCCNc1nc(NCCN2CCN(C)CC2)nc(SCCCCCCCCCC)n1 [Compound D5S10N18] | 2.3%
58 | CCCCCCCCCCCSc1nc(NCCCCCC)nc(NCCN2CCN(C)CC2)n1 [Compound D5S11N6] | 26.9%
59 | CCCCCCCCCCCSc1nc(NCCCCCCC)nc(NCCN2CCN(C)CC2)n1 [Compound D5S11N7] | 8.5%
60 | CCCCCCCCCCCSc1nc(NCCCCCCCC)nc(NCCN2CCN(C)CC2)n1 [Compound D5S11N8] | 36.2%
61 | CCCCCCCCCCCSc1nc(NCCCCCCCCC)nc(NCCN2CCN(C)CC2)n1 [Compound D5S11N9] | 41.5%
62 | CCCCCCCCCCCNc1nc(NCCN2CCN(C)CC2)nc(SCCCCCCCCCCC)n1 [Compound D5S11N11] | 36.5%
